Biological target: Human immunodeficiency virus type 1 integrase (Human immunodeficiency virus 1, UniProt Q7ZJM1)
Experiment: Inhibition of HIV1 integrase strand transfer activity

Human immunodeficiency virus type 1 integrase, sequence (Q7ZJM1 whole entry): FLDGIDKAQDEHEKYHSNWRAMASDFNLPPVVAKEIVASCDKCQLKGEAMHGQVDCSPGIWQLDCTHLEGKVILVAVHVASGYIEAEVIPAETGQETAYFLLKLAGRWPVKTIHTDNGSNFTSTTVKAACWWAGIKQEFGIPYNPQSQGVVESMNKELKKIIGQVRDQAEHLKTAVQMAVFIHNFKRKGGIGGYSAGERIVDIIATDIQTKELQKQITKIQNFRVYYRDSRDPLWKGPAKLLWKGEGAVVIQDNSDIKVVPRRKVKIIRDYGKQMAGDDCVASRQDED

- IC50: 41 µM
SMILES: CCCCCC[C@H]1OC(=O)C2=C1[C@@H](O)[C@@H]1O[C@@H]1[C@@H]2O [INTEGRASONE]
